Key:
Assay type in all cases: in vivo
Setaria viridis [1] = assay: Post-emergence herbicidal effect; details: assessed visually after about 3 weeks
Experimental: (§1) Seeds of monocotyledonous and dicotyledonous weed and crop plants are laid out in sandy loam in wood-fibre pots, covered with soil and cultivated in a greenhouse under good growth conditions. 2 to 3 weeks after sowing, the test plants are treated at the one-leaf stage. The compounds according to the invention, formulated in the form of wettable powders (WP) or as emulsion concentrates (EC), are then sprayed as aqueous suspension or emulsion at a water application rate of 600 to 800 I/ha (converted) with the addition of 0.2% of wetting agent onto the green parts of the plants. After the test plants have been left to stand in the greenhouse under optimal growth conditions for about 3 weeks, the action of the preparations is assessed visually in comparison to untreated controls (herbicidal action in percent (%): 100% activity=the plants have died, 0% activity=like control plants).

Setaria viridis [2] = assay: Pre-emergence herbicidal effect; details: scored visually after 3 weeks
Excerpt: (§2) Seeds of monocotyledonous and dicotyledonous weed plants and crop plants are laid out in wood-fibre pots in sandy loam and covered with soil. The compounds according to the invention formulated in the form of wettable powders (WP) or as emulsion concentrates (EC) are then applied as aqueous suspension or emulsion at a water application rate of 600 to 800 I/ha (converted) with the addition of 0.2% wetting agent to the surface of the covering soil. After the treatment, the pots are placed in a greenhouse and kept under good growth conditions for the trial plants. The damage to the test plants is scored visually after a test period of 3 weeks by comparison with untreated controls (herbicidal activity in percent (%): 100% activity=the plants have died, 0% activity=like control plants).

Echinochloa crus-galli [3] = assay: Pre-emergence herbicidal effect; details: scored visually after 3 weeks
Excerpt: as §2

Lolium multiflorum [4] = assay: Pre-emergence herbicidal effect; details: scored visually after 3 weeks
Excerpt: as §2

Avena fatua [5] = assay: Pre-emergence herbicidal effect; details: scored visually after 3 weeks
Excerpt: as §2

Cyperus esculentus = assay: Pre-emergence herbicidal effect; details: scored visually after 3 weeks
Excerpt: as §2

Alopecurus myosuroides [6] = assay: Pre-emergence herbicidal effect; details: scored visually after 3 weeks
Excerpt: as §2

Echinochloa crus-galli [7] = assay: Post-emergence herbicidal effect; details: assessed visually after about 3 weeks
Experimental: as §1

Lolium multiflorum [8] = assay: Post-emergence herbicidal effect; details: assessed visually after about 3 weeks
Experimental: as §1

Avena fatua [9] = assay: Post-emergence herbicidal effect; details: assessed visually after about 3 weeks
Experimental: as §1

Alopecurus myosuroides [10] = assay: Post-emergence herbicidal effect; details: assessed visually after about 3 weeks
Experimental: as §1

Amaranthus retroflexus = assay: Post-emergence herbicidal effect; details: assessed visually after about 3 weeks
Experimental: as §1

| Structure (SMILES) | Herbicidal effect against [%] SETVI (Setaria viridis [1]; 80 g a.i./ha) [%] | Herbicidal effect against [%] SETVI (Setaria viridis [2]; 80 g a.i./ha) [%] | Herbicidal effect against [%] SETVI (Setaria viridis [2]; 320 g a.i./ha) [%] | Herbicidal effect against [%] ECHCG (Echinochloa crus-galli [3]; 80 g a.i./ha) [%] | Herbicidal effect against [%] ECHCG (Echinochloa crus-galli [3]; 320 g a.i./ha) [%] | Herbicidal effect against [%] LOLMU (Lolium multiflorum [4]; 80 g a.i./ha) [%] | Herbicidal effect against [%] LOLMU (Lolium multiflorum [4]; 320 g a.i./ha) [%] | Herbicidal effect against [%] AVEFA (Avena fatua [5]; 80 g a.i./ha) [%] | Herbicidal effect against [%] AVEFA (Avena fatua [5]; 320 g a.i./ha) [%] | Herbicidal effect against [%] ALOMY (Alopecurus myosuroides [6]; 80 g a.i./ha) [%] | Herbicidal effect against [%] ALOMY (Alopecurus myosuroides [6]; 320 g a.i./ha) [%] | Herbicidal effect against [%] SETVI (Setaria viridis [1]; 20 g a.i./ha) [%] | Herbicidal effect against [%] ECHCG (Echinochloa crus-galli [7]; 20 g a.i./ha) [%] | Herbicidal effect against [%] ECHCG (Echinochloa crus-galli [7]; 80 g a.i./ha) [%] | Herbicidal effect against [%] LOLMU (Lolium multiflorum [8]; 20 g a.i./ha) [%] | Herbicidal effect against [%] LOLMU (Lolium multiflorum [8]; 80 g a.i./ha) [%] | Herbicidal effect against [%] AVEFA (Avena fatua [9]; 20 g a.i./ha) [%] | Herbicidal effect against [%] AVEFA (Avena fatua [9]; 80 g a.i./ha) [%] | Herbicidal effect against [%] ALOMY (Alopecurus myosuroides [10]; 20 g a.i./ha) [%] | Herbicidal effect against [%] ALOMY (Alopecurus myosuroides [10]; 80 g a.i./ha) [%] | also measured |
| --- | --- | --- | --- | --- | --- | --- | --- | --- | --- | --- | --- | --- | --- | --- | --- | --- | --- | --- | --- | --- | --- |
| CC#Cc1cc(C)c(C2=C(OC(=O)OCC)C3(CCCC(OCC)C3)NC2=O)c(CC)c1 (centres unmarked) [Example P1] | 100 | 100 | 100 | 100 | 100 | 100 | 100 | 80 | 100 | 100 | 100 | – | – | – | – | – | – | – | – | – | Herbicidal effect against [%] CYPES (Cyperus esculentus; 80 g a.i./ha): 100%; Herbicidal effect against [%] CYPES (Cyperus esculentus; 320 g a.i./ha): 100% |
| CC#Cc1cc(C)c(C2=C(OC(=O)OCC)C3(CCCC(OCCOC)C3)NC2=O)c(CC)c1 (centres unmarked) [Example P13] | 100 | 100 | 100 | 100 | 100 | 100 | 100 | 100 | 100 | 100 | 100 | 100 | 100 | 100 | 100 | 100 | 100 | 100 | 100 | 100 | Herbicidal effect against [%] CYPES (Cyperus esculentus; 320 g a.i./ha): 90% |
| CC#Cc1cc(C)c(C2=C(OC(=O)OC(C)C)C3(CCCC(OCCOC)C3)NC2=O)c(C)c1 (centres unmarked) [Example P14] | 100 | 100 | 100 | 100 | 100 | 100 | 100 | 100 | 100 | 100 | 100 | 90 | 100 | 100 | 100 | 100 | 90 | 90 | 100 | 100 | – |
| CC#Cc1cc(C)c(C2=C(OC(=O)OC)C3(CCCC(OCCOC)C3)NC2=O)c(C)c1 (centres unmarked) [Example P16] | 100 | – | – | 100 | 100 | 100 | 100 | 100 | 100 | 100 | 100 | 100 | 100 | 100 | 100 | 100 | 100 | 100 | 100 | 100 | Herbicidal effect against [%] AMARE (Amaranthus retroflexus; 20 g a.i./ha): 80%; Herbicidal effect against [%] AMARE (Amaranthus retroflexus; 80 g a.i./ha): 80% |

Source: patent US11178868B2, “Alkynyl-substituted 3-phenylpyrrolidine-2,4-diones and use thereof as herbicides” (Bayer CropScience Aktiengesellschaft, priority 2015, dated 2021)
